US6753323B2, “Topical administration of amifostine and related compounds” (MedImmune Oncology, Inc., priority 1998, dated 2004)

Assays:
[1] = system: bacteria, yeast and mold; test: USP 23 Antimicrobial Preservatives-Effectiveness test, overall; type: cell-based; conditions: each of the tested microorganisms, 28 day test
Procedure: WR-1065 was evaluated according to a protocol based on the “Antimicrobial Preservatives-Effectiveness” Test, outlined in the United States Pharmaeopeia, 23rd ed. (1995).
Prior to inoculation of the test article, a 1:10 dilution is prepared in diluent and 1.0 mL is plated. Additional serial dilutions are prepared and plated as necessary. Two separate sets are prepared as above. One set is prepared for bacteria counts, and one set is prepared for yeast/mold counts.
Enumeration of viable bacterial and fungal populations in the inoculated test article is conducted at 7, 14, 21 and 28 days post inoculation. At each time interval, a 1.0 g (or mL) specimen is removed from each inoculated specimen and plate counts are obtained by preparing serial dilutions in 9 mL tubes of diluent and plating aliquots from each dilution. Following incubation, plates are observed and the CFU's are enumerated. The number obtained is multiplied by the dilution factor to give the number of viable organisms per g (or mL) of test article at each time interval. At each time interval, the inoculated product is examined and any changes observed in the appearance of the test article during the challenge period are recorded. […]

[2] = system: hair matrix cells; conditions: topical 0.3 mg in 0.2 mL Ringer's solution on depilated mouse skin before fractionated irradiation; cited from earlier work
[3] = Solubility of WR-1065 salts in various solvents; type: physicochemical; conditions: Water
Procedure: As mentioned above, salts of amifostine and related compounds are included within the scope of the invention. […] Several salts of WR-1065 were prepared, and their solubility in various solvents was measured.

SMILES	preservative efficacy according to USP 23 criteria [1]	protection of hair matrix cells from radiation-induced injury [2]	Est. Solubitity HPLC Assay ([3]; as salt) [mg/mL]	Est. Solubitity HPLC Assay ([3]; expressed as free base) [mg/mL]
NCCCNCCS [WR-1065, S-2-(3-aminopropylamino) ethanethiol]	effective preservative	some effectiveness	–	–
Cl.Cl.NCCCNCCS [di-HCl]	–	–	849	550
